Test results from patent US6384042B2, “Systemic use of 5-HT3 receptor antagonists against rheumatic inflammatory processes” (priority 1999, dated 2002).

Columns and labels:
Format in all cases: in vivo
[1] = tested on: patient exhibiting rheumatoid arthritis and severe consequential synovial inflammation; experiment: Treatment of synovial inflammation/synovitis consequent to inflammatory processes, trial on a patient (Example 1); details: for outcome of previous treatment: same rheumatoid arthritis patient, treatment before trial entry
Method: The subject is treated for 5 days sequentially with tropisetron administered at a dose of 2 mg/day i.v. Treatment results in amelioration of the synovial inflammation, a reduction of stiffness in the morning and remission from the formation of effusion in the kneejoint.

[2] = tested on: patient with meniscus damage and arthritic change leading to synovial inflammation with knee joint effusion; experiment: Treatment of synovial inflammation with knee joint effusion, patient (Example 2)
Method: Two 2 mg doses of tropisetron are administered i.v. over a period of 17 days with 15 injections, one each day with a 2 days pause in therapy. […] The improvement in condition continues over a further 7 days observation following completion of therapy.

[3] = tested on: patient exhibiting marked dermatomyositis with bioptically verified vasculitis; experiment: Treatment of dermatomyositis/vasculitis, patient (Example 3)
[4] = rheumatoid arthritis patient, 2 mg/day i.v. for 5 days
[5] = 3 injections i.v., each 2 mg, observed already after the first injection

Compound	outcome of previous treatment [1]	formation of effusion in the knee joint [1, 4]	glucocorticoid requirements [1, 4]	measure parameters for inflammation [1, 4]	stiffness in the morning [1, 4]	synovial inflammation [1, 4]	movement of the knee joint ([2]; 2 mg i.v., 15 injections over 17 days)	pain ([2]; 24 hours after the first i.v. injection of 2 mg)	symptoms ([2]; following continuation of injections (2 mg i.v., 15 injections over 17 days))	duration of continued improvement in condition after completion of therapy ([2]; observation following completion of therapy)	exudation from the knee joint ([2]; within 8 days, without any other medication)	massive reddening of the skin [3, 5]	pain symptoms [3, 5]	complaints in follow-up ([3]; over a period of one week following)
Cn1cnc([N+](=O)[O-])c1Sc1ncnc2[nH]cnc12 [azathioprin]	largely unsuccessfully													
CN(Cc1cnc2nc(N)nc(N)c2n1)c1ccc(C(=O)N[C@@H](CCC(=O)O)C(=O)O)cc1 [methotrexate]	largely unsuccessfully													
CN1[C@@H]2CC[C@H]1C[C@@H](OC(=O)c1c[nH]c3ccccc13)C2 [tropisetron, Indol-3-yl-carboxylic acid-endo-8-methyl-8-aza-bicyclo[3,2,1]-oct-3-yl-ester]		remission	marked reduction	reduction	reduction	amelioration	clearly improved	significant improvement	virtually free of symptoms	7 days	completely inhibited	Virtually complete remission	clear reduction	substantially complaint free
